What was measured:
WT and Mll3/4 KO mESCs = experiment: RNA-seq of WT and Mll3/4 KO mESCs treated with LTX -/+ HPX; type: cell-based, mouse; conditions: 48 hours
Experimental: FIG. 3. […] (A) WT and Mll3/4 KO cells were treated with 0-2.5 μM lometrexol (LTX)−/+50 hypoxanthine (HPX) for 48 hours. CellTiter-Glo® luminescent cell viability assay was performed to determine the percentage of inhibition under these conditions. (B) WT and KO cells were treated with 0.3 μM LTX−/+50 μM HPX for 48 hours, and cells were harvested for RNA-seq. Differential gene expression analyses were performed with indicated comparisons. (C) Principal component analysis of RNA-seq in (B). (D) Hierarchical clustering heatmap showing differentially expressed genes in KO cells in comparison with WT cells.
FIG. 10. Mll3/4 KO mESCs are more sensitive to purine synthesis inhibition. (A-B) WT and Mll3/4 KO cells were treated with 0-2.5 μM lometrexol (LTX) (A) or 0-5 methotrexate (MTX) (B) for 48 hours. CellTiter-Glo® luminescent cell viability assay was performed to determine the percentage of inhibition under these conditions with three different Mll3/4 KO clones included. (C) WT and Mll3/4 KO cells were treated with 0-40 μM SHIINI for 48 hours. MTT cell viability assay was performed to determine the percentage of inhibition under these conditions with three different Mll3/4 KO clones included.
Gene count tables were constructed using HTseq (56) with Ensembl gene annotations and used as input for edgeR 3.0.8 (57). Genes with Benjamini-Hochburg adjusted p-values less than were differentially expressed. Batch effects were removed using ComB at-seq on the raw read counts (58). Pathway analysis was performed with Metascape (59).

[1] = tested on: MLL4 mutant colorectal cancer cells (SW480, DLD1, HCT116, RKO); experiment: CellTiter-Glo viability assay in MLL4 wild type and MLL4 mutant colorectal cell lines; type: cell-based, human; conditions: 72 hours; LTX 0-30 μM, Piericidin A 0-10 μM, Phenformin 0-30 mM
[2] = tested on: BBN induced bladder cancer, MLL4 mutant tumors; experiment: BBN induced bladder cancer mouse model; type: in vivo, C57BL/6J male mice; conditions: 15 mg/kg intraperitoneal twice a week for 12 weeks; Fisher's exact test, p=0.037
Description: N-butyl-N-(4-hydroxybutyl)-nitrosamine (BBN) is a carcinogen, that mimics the tobacco use in human. When administered to C57/B6 male mice in drinking water for at least 20 weeks, causes muscle invasive bladder tumors (MIBC) (1). Besides, 70% of Kmt2d/MLL4 is mutated in BBN mouse model, mimicking high MLL4 mutation rate (and low UTX mutation rate) found in […] (1, 2). Thus, we believe that this is a valuable system where we could examine the effect of lometrexol in bladder cancer based on the MLL4 mutation stratification.
Experiment design: Thirty 7-week-old C57BL/6J male mice were used in our study to induce bladder cancer by feeding them with 0.1% BBN containing water for 6 weeks. The mice were then randomized into two groups: DMSO (n=15) or lometrexol treatment (n=15) and were given intraperitoneal injections of the respective treatments twice a week at a dose of 15 mg/kg for 12 weeks. At the end of the treatment period, the bladder tissues of the mice were harvested for H&E staining and RNA isolation. Each mouse's tumor grade was assessed, and RNA samples were analyzed for mutations in the kmt2d/MLL4 gene through mRNA-seq. Finally, we compared the MLL4 genotype and treatment to the tumor stage to assess the effectiveness of the treatment.

Nc1nc2c(c(=O)[nH]1)C[C@@H](CCc1ccc(C(=O)N[C@@H](CCC(=O)O)C(=O)O)cc1)CN2 [lometrexol, (2S)-2-[[4-[2-[(6R)-2-amino-4-oxo-5,6,7,8-tetrahydro-3H-pyrido[2,3-d]pyrimidin-6-yl]ethyl]benzoyl]amino]pentanedioic acid]
gene expression change in WT and Mll3/4 KO cells (WT and Mll3/4 KO mESCs; 0.3 μM LTX or 50 μM HPX alone, LTX effect almost completely rescued by HPX): induced significant gene expression change
genes commonly downregulated in WT and KO cells (WT and Mll3/4 KO mESCs; 0.3 μM LTX): 1063 genes
genes commonly upregulated in WT and KO cells (WT and Mll3/4 KO mESCs; 0.3 μM LTX): 1195 genes
sensitivity of MLL4 mutant cells compared with MLL4 wild type cells (growth inhibition) [1]: selectively more sensitive
tumor stage of mice with MLL4 mutant tumors compared with other groups [2]: significant lowered tumor stages
